In ChEMBL document CHEMBL1152288, “Characterization of thien-2-yl 1S,2R-milnacipran analogues as potent norepinephrine/serotonin transporter inhibitors for the treatment of neuropathic pain” (J Med Chem, 2008):

Experiments:
[1] = Plasma clearance in monkey at 5 mg/kg, iv or 30 mg/kg, po; type: ADME, organism-based, Macaca mulatta; conditions: rhesus monkey
[2] = Renal clearance in monkey at 5 mg/kg, iv or 30 mg/kg, po; type: ADME, organism-based, Macaca mulatta, Kidney; conditions: rhesus monkey, in vivo; read-out: CL_renal
[3] = Half life in Beagle dog at 5 mg/kg, iv or 30 mg/kg, po; type: ADME, organism-based, Canis lupus familiaris; conditions: in vivo
[4] = Bioavailability in Beagle dog at 5 mg/kg, iv or 30 mg/kg, po; type: ADME, organism-based, Canis lupus familiaris; conditions: in vivo
[5] = Half life in monkey at 5 mg/kg, iv or 30 mg/kg, po; type: ADME, organism-based, Macaca mulatta; conditions: rhesus monkey, in vivo
[6] = Tmax in monkey at 5 mg/kg, iv or 30 mg/kg, po; type: ADME, organism-based, Macaca mulatta; conditions: rhesus monkey, in vivo
[7] = Cmax in Beagle dog at 5 mg/kg, iv or 30 mg/kg, po; type: ADME, organism-based, Canis lupus familiaris; conditions: in vivo
[8] = Volume of distribution at steady state in Beagle dog at 5 mg/kg, iv or 30 mg/kg, po; type: ADME, organism-based, Canis lupus familiaris; conditions: in vivo, read-out: Vdss
[9] = Plasma clearance in Beagle dog at 5 mg/kg, iv or 30 mg/kg, po; type: ADME, organism-based, Canis lupus familiaris
[10] = Renal clearance in Beagle dog at 5 mg/kg, iv or 30 mg/kg, po; type: ADME, organism-based, Canis lupus familiaris, Kidney; conditions: in vivo, read-out: CL_renal
[11] = AUC in monkey at 5 mg/kg, iv or 30 mg/kg, po; type: ADME, organism-based, Macaca mulatta; conditions: rhesus monkey, plasma
[12] = Bioavailability in monkey at 5 mg/kg, iv or 30 mg/kg, po; type: ADME, organism-based, Macaca mulatta; conditions: rhesus monkey, in vivo
[13] = AUC in Beagle dog at 5 mg/kg, iv or 30 mg/kg, po; type: ADME, organism-based, Canis lupus familiaris; conditions: plasma
[14] = Cmax in monkey at 5 mg/kg, iv or 30 mg/kg, po; type: ADME, organism-based, Macaca mulatta; conditions: rhesus monkey, in vivo
[15] = Volume of distribution at steady state in monkey at 5 mg/kg, iv or 30 mg/kg, po; type: ADME, organism-based, Macaca mulatta; conditions: rhesus monkey, in vivo, read-out: Vdss
[16] = Tmax in Beagle dog at 5 mg/kg, iv or 30 mg/kg, po; type: ADME, organism-based, Canis lupus familiaris; conditions: in vivo
[17] = Tmax in mouse at 5 mg/kg, iv or 30 mg/kg, po; type: ADME, organism-based; conditions: in vivo
[18] = Cmax in mouse at 5 mg/kg, iv or 30 mg/kg, po; type: ADME, organism-based; conditions: in vivo, read-out: Vdss
[19] = Plasma clearance in mouse at 5 mg/kg, iv or 30 mg/kg, po; type: ADME, organism-based
[20] = Bioavailability in mouse at 5 mg/kg, iv or 30 mg/kg, po; type: ADME, organism-based; conditions: in vivo
[21] = AUC in mouse at 5 mg/kg, iv or 30 mg/kg, po; type: ADME, organism-based; conditions: plasma
[22] = Half life in mouse at 5 mg/kg, iv or 30 mg/kg, po; type: ADME, organism-based; conditions: in vivo
[23] = Volume of distribution at steady state in mouse at 5 mg/kg, iv or 30 mg/kg, po; type: ADME, organism-based; conditions: in vivo, read-out: Vdss
[24] = molecular target: Sodium-dependent serotonin transporter (Homo sapiens, UniProt P31645); assay: biochemical
Chain of Sodium-dependent serotonin transporter (P31645 whole entry): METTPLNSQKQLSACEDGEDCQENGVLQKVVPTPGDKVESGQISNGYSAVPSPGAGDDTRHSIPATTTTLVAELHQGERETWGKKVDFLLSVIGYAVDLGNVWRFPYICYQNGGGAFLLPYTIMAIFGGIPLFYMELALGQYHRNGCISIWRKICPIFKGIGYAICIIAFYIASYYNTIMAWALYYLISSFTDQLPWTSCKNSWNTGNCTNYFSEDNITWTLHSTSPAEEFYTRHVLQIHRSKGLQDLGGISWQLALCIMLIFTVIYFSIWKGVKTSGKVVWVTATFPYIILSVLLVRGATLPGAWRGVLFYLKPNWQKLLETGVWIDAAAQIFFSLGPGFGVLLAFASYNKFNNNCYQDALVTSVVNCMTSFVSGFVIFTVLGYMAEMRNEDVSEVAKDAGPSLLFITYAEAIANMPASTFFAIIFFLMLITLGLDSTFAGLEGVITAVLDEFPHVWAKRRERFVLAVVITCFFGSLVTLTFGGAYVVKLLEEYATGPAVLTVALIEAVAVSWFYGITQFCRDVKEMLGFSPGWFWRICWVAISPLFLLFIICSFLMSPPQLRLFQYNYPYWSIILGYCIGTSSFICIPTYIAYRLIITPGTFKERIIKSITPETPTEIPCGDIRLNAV
Description: Displacement of [alpha,beta-3H(N)]-5-hydroxytryptamine from human cloned SERT expressed in HEK293 cells by microplate scintillation counter

[25] = molecular target: Voltage-gated inwardly rectifying potassium channel KCNH2 (Homo sapiens, UniProt Q12809)
Chain of Voltage-gated inwardly rectifying potassium channel KCNH2 (Q12809 whole entry): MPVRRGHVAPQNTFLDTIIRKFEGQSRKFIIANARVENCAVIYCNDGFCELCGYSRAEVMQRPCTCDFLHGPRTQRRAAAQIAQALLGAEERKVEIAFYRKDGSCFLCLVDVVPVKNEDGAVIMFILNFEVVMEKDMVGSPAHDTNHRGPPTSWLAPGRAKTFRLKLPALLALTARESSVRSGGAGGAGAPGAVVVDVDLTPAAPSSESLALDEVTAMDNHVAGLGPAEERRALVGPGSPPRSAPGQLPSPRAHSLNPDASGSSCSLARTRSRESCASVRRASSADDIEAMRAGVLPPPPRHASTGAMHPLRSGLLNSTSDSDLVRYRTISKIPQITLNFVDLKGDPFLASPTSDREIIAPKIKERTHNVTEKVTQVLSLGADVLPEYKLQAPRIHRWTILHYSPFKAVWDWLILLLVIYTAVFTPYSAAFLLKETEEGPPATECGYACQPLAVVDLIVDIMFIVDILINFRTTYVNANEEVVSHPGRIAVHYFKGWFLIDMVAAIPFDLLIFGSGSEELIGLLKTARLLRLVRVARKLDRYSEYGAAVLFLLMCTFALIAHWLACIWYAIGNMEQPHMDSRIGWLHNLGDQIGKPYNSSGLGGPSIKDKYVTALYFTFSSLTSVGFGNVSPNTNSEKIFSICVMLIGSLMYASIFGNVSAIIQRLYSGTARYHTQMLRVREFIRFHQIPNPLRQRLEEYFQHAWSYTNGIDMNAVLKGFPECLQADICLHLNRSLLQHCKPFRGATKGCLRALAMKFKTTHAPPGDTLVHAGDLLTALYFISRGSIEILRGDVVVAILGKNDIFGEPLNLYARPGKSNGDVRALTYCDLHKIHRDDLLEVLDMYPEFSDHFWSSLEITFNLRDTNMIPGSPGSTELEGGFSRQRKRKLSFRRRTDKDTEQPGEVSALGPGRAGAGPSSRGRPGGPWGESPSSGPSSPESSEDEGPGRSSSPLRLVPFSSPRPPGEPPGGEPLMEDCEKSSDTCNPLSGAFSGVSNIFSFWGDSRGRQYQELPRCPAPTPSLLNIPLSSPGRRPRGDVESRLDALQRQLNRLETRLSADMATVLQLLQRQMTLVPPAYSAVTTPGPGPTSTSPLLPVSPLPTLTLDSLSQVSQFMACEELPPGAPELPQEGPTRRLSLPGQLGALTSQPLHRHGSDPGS
Description: Inhibition of human ERG expressed in HEK293 cells by patch-clamp method

[26] = molecular target: Sodium-dependent noradrenaline transporter (Homo sapiens, UniProt P23975); assay: biochemical
Chain of Sodium-dependent noradrenaline transporter (P23975 whole entry): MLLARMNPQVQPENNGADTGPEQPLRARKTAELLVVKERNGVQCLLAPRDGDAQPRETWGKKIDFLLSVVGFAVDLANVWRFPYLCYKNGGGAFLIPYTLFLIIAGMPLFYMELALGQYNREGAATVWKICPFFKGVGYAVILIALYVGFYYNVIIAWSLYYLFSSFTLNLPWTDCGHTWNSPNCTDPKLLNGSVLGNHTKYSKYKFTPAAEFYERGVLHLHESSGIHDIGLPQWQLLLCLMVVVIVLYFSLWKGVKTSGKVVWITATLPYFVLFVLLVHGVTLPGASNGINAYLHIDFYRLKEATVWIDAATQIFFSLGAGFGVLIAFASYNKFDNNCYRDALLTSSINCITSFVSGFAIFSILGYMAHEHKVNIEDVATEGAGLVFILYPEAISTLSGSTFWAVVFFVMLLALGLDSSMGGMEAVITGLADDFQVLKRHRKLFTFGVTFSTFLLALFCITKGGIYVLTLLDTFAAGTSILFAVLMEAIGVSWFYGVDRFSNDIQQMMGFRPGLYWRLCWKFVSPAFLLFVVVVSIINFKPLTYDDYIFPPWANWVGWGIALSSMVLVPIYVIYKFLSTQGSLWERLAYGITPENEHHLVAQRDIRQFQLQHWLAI
Description: Displacement of Levo[ring-2,5,6-3H]norepinephrine from human cloned NET expressed in HEK293 cells by microplate scintillation counter

[27] = Metabolic stability in rat liver microsomes assessed as systemic clearance at 1 uM after 15 mins by LC-MS/MS analysis; type: ADME, Microsome
in vitro = conditions: human, Caco-2
Description: Apparent permeability from apical to basolateral side of the human Caco-2 cells

[28] = molecular target: Sodium-dependent dopamine transporter (Homo sapiens, UniProt Q01959); assay: biochemical
Chain of Sodium-dependent dopamine transporter (Q01959 whole entry): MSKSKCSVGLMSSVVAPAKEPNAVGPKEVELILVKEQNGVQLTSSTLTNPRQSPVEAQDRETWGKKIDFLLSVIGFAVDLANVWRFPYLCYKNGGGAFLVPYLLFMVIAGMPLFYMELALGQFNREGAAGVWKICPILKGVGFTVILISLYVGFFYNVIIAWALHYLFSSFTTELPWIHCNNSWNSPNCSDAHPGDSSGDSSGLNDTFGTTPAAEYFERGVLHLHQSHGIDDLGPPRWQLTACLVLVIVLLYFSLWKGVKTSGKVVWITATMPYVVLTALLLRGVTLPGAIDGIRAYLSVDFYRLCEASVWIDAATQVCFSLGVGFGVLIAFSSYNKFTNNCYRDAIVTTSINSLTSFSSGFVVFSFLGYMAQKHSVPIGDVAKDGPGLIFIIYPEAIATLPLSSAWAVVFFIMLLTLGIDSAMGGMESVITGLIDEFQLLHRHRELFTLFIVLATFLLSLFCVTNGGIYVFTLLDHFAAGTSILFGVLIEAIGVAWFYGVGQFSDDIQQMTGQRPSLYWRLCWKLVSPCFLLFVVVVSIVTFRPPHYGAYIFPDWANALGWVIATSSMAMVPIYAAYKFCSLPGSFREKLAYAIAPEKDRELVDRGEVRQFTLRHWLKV
Description: Displacement of 3,4-[ring-2,5,6-3H]dihydroxyphenylethylamine from human cloned DAT expressed in HEK293 cells by microplate scintillation counter

[29] = Metabolic stability in human liver microsomes assessed as systemic clearance at 1 uM after 15 mins by LC-MS/MS analysis; type: ADME, Microsome

Work on C=C(F)CN(CC)C(=O)[C@@]1(c2cccs2)C[C@H]1CN.Cl yielded a clearance [1] of 34 mL/min/kg, a CL renal [2] of 6 mL/min/kg and a half-life [3] of 3.5 h. It also gave a bioavailability [4] of 109%, a half-life [5] of 4.3 h and a Tmax [6] of 2.3 h. It also gave a Cmax [7] of 5570 ng/mL, a Vd [8] of 2.4 L/kg and a clearance [9] of 10.8 mL/min/kg. It also gave a CL renal [10] of 2.2 mL/min/kg, an AUC [11] of 9050 ng·h/mL and a bioavailability [12] of 70%. The AUC [13] was 47500 ng·h/mL, the Cmax [14] was 2440 ng/mL and the Vd [15] was 4.4 L/kg. The Tmax [16] was 1.2 h.
In the case of C=CCN(CC=C)C(=O)[C@@]1(c2cccs2)C[C@H]1CN.Cl, the clearance [1] is reported as 22.9 mL/min/kg, the CL renal [2] is reported as 3.9 mL/min/kg and the Tmax [17] is reported as 0.3 h. For the same compound, the half-life [3] was 2.4 h, the bioavailability [4] was 78% and the half-life [5] was 2.1 h. It also gave a Cmax [18] of 1730 ng/mL, a clearance [19] of 135 mL/min/kg and a bioavailability [20] of 92%. It also gave a Tmax [6] of 4.5 h, an AUC [21] of 3020 ng·h/mL and a Vd [8] of 3.6 L/kg. It also gave a clearance [9] of 19.2 mL/min/kg, a CL renal [10] of 2 mL/min/kg and an AUC [11] of 6320 ng·h/mL. The half-life [22] was 0.79 h, the bioavailability [12] was 34% and the AUC [13] was 17100 ng·h/mL. The Cmax [14] was 905 ng/mL, the Vd [23] was 5.4 L/kg and the Vd [15] was 3.8 L/kg. The Tmax [16] was 1.8 h.
With C=CCN(C(=O)[C@@]1(c2cccs2)C[C@H]1CN)C1CC1 the IC50 [24] was 45 nM, the IC50 [25] was > 10000 nM and the IC50 [26] was 17 nM. The CLhep predicted at 1 µM [27] was 63 mL/min/kg, the Papp A→B (in vitro) was 17.8 ×10⁻⁶ cm/s and the IC50 [28] was > 10000 nM. The CLhep predicted at 1 µM [29] was 5 mL/min/kg.
